Data on one compound can be found in patent publication US5571518A, “Cosmetic compositions containing tricholine citrate” (priority 1995, dated 1996).

Type in all cases: cell-based
In test [1] the test system is human keratinocytes. The test can be described thus: 3H choline incorporation into phospholipids of keratinocytes. The method, then:
(§1) Human keratinocytes, isolated from neonatal foreskin by trypsin treatment were grown in Dulbecco Modification Eagle (DME) Hams F12 (3:1) medium/5% fetal calf serum in the presence of mitomycin C treated 3T3 mouse fibroblasts for establishing dividing keratinocyte colonies. Cells were grown under the above condition until their second passage and kept frozen for future use. Frozen second passage keratinocytes were thawed and plated into the above medium and grown for five days. On day 5, when the cells were 70-80% confluent, they were trypsinized and plated in the serum-free medium for the various experiments.
Choline acts as an essential nutrient for the cellular phospholipid biosynthesis of keratinocytes. Choline present in the medium is used up by the cells for phospholipid biosynthesis. If TCC provides choline for the cells it will complete with the choline in the medium for incorporation into cellular phospholipids. When cells are incubated with ^3 H-labelled choline, its incorporation into phospholipids will be decreased by the presence of unlabelled choline or TCC in the medium.
[…] The wells were washed, total lipids were extracted using Bleigh Dyer method as described above and the total counts in the chloroform phase was determined. To ascertain that the counts are present only in the phospholipid fraction, the amount of ^3 H choline incorporated into the different lipid fractions were quantitated by running TLC of the fractions in the above solvent system, and the amount of radioactivity in the phospholipid fraction (origin) was quantitated using BioScan plate reader. The cpm of ^3 H choline was plotted against the amount of cold choline or TCC added in the medium to assess the competition between choline supplied from TCC with ^3 H choline.
The amount of ^3 H choline incorporated into cellular phospholipids was determined and expressed as % of controls.

For test [2], the system named is human keratinocytes. The test can be described thus: Cornified envelope (CE) formation, marker of terminal differentiation of keratinocytes. The method, then:
as §1
During the process of terminal differentiation in the epidermis, a 15 nm thick layer of protein, known as the cornified envelope (CE)is formed on the inner surface of the cell periphery. The CE is composed of numerous distinct proteins which have been cross-linked together by the formation of N ^ε -(-γ-glutamyl) lysine isodipeptide bonds catalyzed by the action of at least two different transglutaminases expressed in the epidermis. Transglutaminase (TG-1) is expressed in abundance in the differentiated layers of the epidermis, especially the granular layer, but is absent in the undifferentiated basal epidermis. Thus, TG-1 is a useful marker of epidermal keratinocyte differentiation with high TG-1 levels indicating a more differentiated state. An ELISA based TG-1 assay, using a TG-1 antibody, was used to assess the state of differentiation of the cultured keratinocytes in the examples that follow.
Proper skin conditioning require enhanced proliferation and differentiation of epidermal keratinocytes. The different citrate esters were tested on their effect on cornified envelope (CE) formation, a marker of terminal differentiation of keratinocytes. Citrate esters were tested at 1 mM levels in medium containing 0.15 mM Ca. Levels are expressed as % of control ±SD. The CE formation for the control was 54.48 ±31.8 cpm/μg cell protein.

Test [3] has as its system human keratinocytes. The test is described as follows: DNA synthesis in keratinocytes (3H-thymidine incorporation, keratinocyte proliferation). An excerpt: The incorporation of ^3 H-thymidine by cultured keratinocytes was used as an assay of keratinocyte proliferation. Thymidine is one of four deoxynucleosides which are the monomeric units of DNA, the universal library of genetic information in the animal kingdom. Prior to cell division of a somatic cell such as a keratinocyte, the complete genome of the cell undergoing cell division is replicated. This involves large scale DNA synthesis by the cell and enables both daughter cells to receive identical copies of the genetic material. When ^3 H-thymidine is included in the culture media of keratinocytes which are synthesizing DNA in preparation for cell division then the labelled nucleoside is incorporated into the newly synthesized DNA. The extent of incorporation of ^3 H-thymidine into a population of cells is proportional to the rate of DNA synthesis by this population of cells and therefore an indication of their cellular proliferation.
1. Normal human keratinocytes isolated from neonatal foreskins by trypsin treatment were grown in DME medium/5% fetal calf serum in the presence of mitomycin C treated 3T3 mouse fibroblasts for establishing dividing keratinocyte colonies. Keratinocytes were grown under the above condition until their third passage.
2. For the experiments, third passage keratinocytes were plated into a serum-free keratinocyte growth medium (KGM; obtained from Clonetics, San Diego, Calif.) containing 0.09 mM calcium. 20,000 to 30,000 cells were plated into each well of 24 well cell culture plates and grown for 5 days, until the cells reach about 80% confluence.
3. Medium was changed to fresh medium and the various test materials were added to the medium from an ethanolic stock solution. The final ethanol concentration in the cultures was kept below 0.2%. Control cultures received no tested material but were dosed with 0.2% ethanol. Each compound or combination was tested in three separate wells. In four hours, 1 uCi of ^3 H-thymidine (Amersham Corp., Sp activity 40 Ci/mmol) was added to the 1 ml medium in each well. The cells were incubated overnight and 24 hours later the amount of ^3 H-thymidine associated with the cellular DNA of keratinocytes was assessed as described below.
4. The medium was aspirated, and the wells washed with 1 ml phosphate-buffered saline. The DNA and proteins of the cells in the plate were then precipitated by adding 1 ml of ice-cold 10% trichloroacetic acid (TCA). The plates were left on ice for 30 minutes to complete the precipitation process. TCA was then aspirated and each well was then washed four times with 5% TCA. The plates were then dried on a filter pad and the cells in the wells were dissolved in 0.5 ml of 0.1N sodium hydroxide. The sodium hydroxide was then neutralized using 0.1N hydrochloric acid and the solution (1 ml total volume) was then transferred to a scintillation vial. 50 μl samples from each vial were used for protein assay using BCA protein assay reagent obtained from Pierce Chemical Company. 8 ml of a scintillation fluid (Ecolume) was added to the rest of the solution in the vial, and the vials were counted in a scintillation counter to determine the amount of radioactivity in each vial. The DNA synthesis rate was then calculated as cpm ^3 H thymidine incorporated into total cellular DNA/microgram of cell protein for each individual well.
(Incorporation of labelled thymidine or its analogues reports DNA synthesis.)

[4] abbreviates: Homo sapiens, Keratinocyte, 48 h, read-out: 3H choline incorporated into cellular phospholipids.
[5] abbreviates: Homo sapiens, Keratinocyte, 24 h, read-out: Rate of DNA synthesis.

In the case of `O=C(O)CC(O)(CC(=O)O)C(=O)O` [Citric acid, citric acid], in the test with human keratinocytes [1] (48 hours), the “choline incorporation into phospholipid fraction, result in words” value is “no significant effect on choline incorporation into phospholipid fraction”. For the same compound, in the test on human keratinocytes [1] (setting [4]), the activity at 10 µM is 91.4 ± 12.7%, the activity at 100 µM stood at 77.5 ± 19.5% and the activity at 1000 µM turned out to be 74.1 ± 28.8%. The “cornified envelope formation / keratinocyte differentiation, result in words” value with human keratinocytes [2] (1 mM, 0.15 mM Ca) is given as “inhibited cornified envelope formation significantly”. Further, in the test on human keratinocytes [2] (Homo sapiens, Keratinocyte, read-out: CE Levels), the activity at 1000 µM was 13.7 ± 1.1%. The “keratinocyte differentiation, result in words” value in the test with human keratinocytes [2] (summary of Example 2) is “inhibit both proliferation and differentiation of keratinocytes”. Also, in the test on human keratinocytes [3] (setting [5]), the activity at 0.1 µM came to 88.4 ± 15.5%, the activity at 1 µM was 74.5 ± 32.2%, the activity at 10 µM was found to be 89.9 ± 20.3% and the activity at 100 µM amounted to 88.7 ± 5.1%. Besides, in the test with human keratinocytes [3] (setting [5]), the activity at 1000 µM stood at 63.9 ± 11.8% and the activity at 10000 µM is 4.25 ± 2.2%. For the same compound, the “keratinocyte proliferation, result in words” value with human keratinocytes [3] (summary in Example 2) is “inhibit both proliferation and differentiation of keratinocytes”.
